# Results: patent publication US11040976B2, “Substrate selective inhibitors of insulin-degrading enzyme (IDE) and uses thereof” (President and Fellows of Harvard College, priority 2015, dated 2021)
# Legend:
# [1] = target: T1, Human N-His6-IDE42-1019 (E. coli expressed) (Homo sapiens, UniProt P14735); experiment: Fluorescence anisotropy high-throughput screening assay (displacement of probe FL-6b); type: binding
# T1 construct: Human N-His6-IDE42-1019 (E. coli expressed); made in house; host or cells: E. coli (Rosetta 2 (DE3) pLysS, plasmid pTrcHis-A)
# T1 sequence (P14735 42-1019): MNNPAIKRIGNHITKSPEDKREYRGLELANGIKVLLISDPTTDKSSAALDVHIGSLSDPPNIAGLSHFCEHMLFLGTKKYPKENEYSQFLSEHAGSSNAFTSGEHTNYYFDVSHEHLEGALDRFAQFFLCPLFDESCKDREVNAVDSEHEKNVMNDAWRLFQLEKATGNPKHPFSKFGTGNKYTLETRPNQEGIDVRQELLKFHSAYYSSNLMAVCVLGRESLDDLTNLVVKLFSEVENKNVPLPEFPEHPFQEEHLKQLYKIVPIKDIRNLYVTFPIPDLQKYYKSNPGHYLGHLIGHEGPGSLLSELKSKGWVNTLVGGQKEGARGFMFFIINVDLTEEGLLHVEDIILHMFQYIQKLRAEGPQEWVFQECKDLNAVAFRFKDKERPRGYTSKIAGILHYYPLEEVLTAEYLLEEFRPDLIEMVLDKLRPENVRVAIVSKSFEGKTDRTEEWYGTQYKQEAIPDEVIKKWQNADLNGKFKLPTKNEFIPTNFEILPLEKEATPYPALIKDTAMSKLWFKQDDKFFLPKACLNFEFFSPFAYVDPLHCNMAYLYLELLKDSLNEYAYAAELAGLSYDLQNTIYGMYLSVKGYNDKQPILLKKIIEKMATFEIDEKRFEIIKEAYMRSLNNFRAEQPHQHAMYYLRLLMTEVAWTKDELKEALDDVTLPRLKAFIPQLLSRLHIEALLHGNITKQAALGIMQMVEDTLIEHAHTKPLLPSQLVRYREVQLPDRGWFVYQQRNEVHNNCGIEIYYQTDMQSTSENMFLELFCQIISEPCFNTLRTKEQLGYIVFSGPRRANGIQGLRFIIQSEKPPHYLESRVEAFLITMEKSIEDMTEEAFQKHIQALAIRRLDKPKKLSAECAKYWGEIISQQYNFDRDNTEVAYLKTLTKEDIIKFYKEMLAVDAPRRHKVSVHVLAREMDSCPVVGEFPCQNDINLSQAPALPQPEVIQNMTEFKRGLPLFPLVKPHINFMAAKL
# Description: The fluorescence anisotropy screening method and probe FL-6b are described in PCT application PCT/US2014/064322, incorporated herein by reference.
# Human N-His6-IDE42-1019 (E. coli expressed) was mixed with fluorescein-labeled macrocycle FL-6b:
# [drawing 802] in 50 mM Tris buffer pH 8.0, with 1 M NaCl, at 25° C. Optimum signal was obtained using a mixture of […] probe FL-6b and 0.5 μM IDE. The “diversity-oriented (DOS) synthesis informer set” compound plates were pinned onto 384-well plates containing the enzyme-probe mixture (50 μL/well). The azetidine screen was pre-printed on 384-well plates and the enzyme-probe mixture was added (50 μL/well). The final compound concentration was 20 μM. IDE inhibitor 6bK was used as a positive control at a final concentration of 1 μM. After 30 minutes of equilibration, the increase in fluorescence anisotropy was recorded using an EnVision spectrophotometer (excitation 492 nm, emission 523 nm). The fluorescence anisotropy was independently measured twice for each screened compound. The Z-scores for each pair of measurements are plotted in FIG. 1A (DOS informer set) and FIG. 1B (azetidines), and average Z-scores are listed for exemplary compounds in Table E1.
# Z-scores were calculated based on the raw anisotropy measured for each well according to Eq. 1, wherein x is the raw anisotropy value of the well, μ is the mean of the anisotropy of the negative control wells (DMSO) for the plate, and σ is the standard deviation in anisotropy of the negative control wells (DMSO) for the plate.
# [2] = target: T2, recombinant human IDE42-1019 (Homo sapiens, UniProt P14735); experiment: Protease assay with fluorogenic peptide substrate Mca-[…](Dnp)-OH; type: biochemical; conditions: fluorogenic peptide Mca-RPPGFSAFK(Dnp)-OH; for Emax: plateau at high inhibitor concentration, read-out: Imax (%) Proteolysis (inhibition maximum); for IC50: apparent IC50 for compounds with submaximal inhibition, read-out: IC50 (μM) Proteolysis
# T2 construct: recombinant human IDE42-1019 (R&D Systems); purchased R&D Systems
# T2 sequence (P14735 42-1019): T1 sequence (P14735 42-1019)
# Description: The proteases IDE42-1019, recombinant human IDE42-1019 (R&D Systems), neprilysin (R&D), and angiotensin-converting enzyme (R&D) were assayed using the fluorophore/quencher-tagged peptide substrate Mca-[…](Dnp)-OH (SEQ ID NO: 24) (R&D) according to the manufacturer's instructions and using the recommended buffers (fluorophore Mca=(7-methoxycourmarin-4-yl)acetyl and quencher Dnp=2,4-dinitrophenyl). For IDE the recommended buffer is 50 mM Tris pH 7.5, 1 M NaCl. The enzyme mixtures (48 μL) were transferred to a 96-well plate and combined with 2 μL of inhibitor in DMSO solutions, in 3-fold dilution series. The mixtures were allowed to equilibrate for 10 minutes and the enzymatic reaction was started by addition of substrate peptide in assay buffer (50 μL), mixed, and monitored on a fluorescence plate reader (excitation at 320 nm, emission at 405 nm). Similarly, thimet oligopeptidase (R&D) and neurolysin (R&D) were assayed using substrate Mca-PLGPK(Dnp)-OH (SEQ ID NO: 25) (R&D) according to the manufacturer's instructions and using the recommended buffers. Matrix metalloproteinase-1 (R&D) was activated and assayed according to the manufacturer's instructions with substrate Mca-KPLGL-Dpa-AR-NH2 (SEQ ID NO: 20) (R&D) (quencher DPA=N-3-(2,4,dinitrophenyl)-L-2,3-diaminopropionyl). All assay data points were obtained in duplicate.
# [3] = final compound concentration 20 μM (6bK control 1 μM), values without asterisk
# [4] = values marked *: from the screen using the diversity-oriented synthesis (DOS) informer set of plates, 20 μM
IC50 [2],Compound,other results
0.09 µM,Cc1ccc(C)c(-c2ccc([C@@H]3[C@@H](CO)N4CCCCN(S(=O)(=O)c5ccccc5C)C[C@@H]34)cc2)c1 [K13],–
0.15 µM,COC[C@@H]1[C@@H](c2ccc(-c3ccc(F)c(C)c3C)cc2)[C@@H]2CN(S(=O)(=O)c3nccn3C)CCCCN12 [JP-43-OMe],–
4 µM,Cc1ccccc1S(=O)(=O)N1CCCCN2[C@H](CO)[C@@H](c3ccc(-c4cnc(F)c(C)c4)cc3)[C@@H]2C1 [K26],–
0.3 µM,Cc1ccccc1S(=O)(=O)N1CCCCN2[C@H](CO)[C@@H](c3ccc(-c4ccc(F)c(F)c4C)cc3)[C@@H]2C1 [K24],–
0.03 µM,CCCn1nccc1S(=O)(=O)N1C/C=C\CN2C(C1)[C@H](c1ccc(-c3cccc(C)c3C)cc1)[C@H]2CO (stereo partly shown) [JP-S16],–
0.3 µM,Cc1ccccc1S(=O)(=O)N1CCCCN2[C@H](CO)[C@@H](c3ccc(-c4cccc(F)c4C(F)(F)F)cc3)[C@@H]2C1 [K23],–
7 µM,OC[C@H]1[C@@H](c2ccc(C#Cc3ccccc3F)cc2)[C@@H]2CN(Cc3cncnc3)CCCCN12 [compound 683],Emax [2]: 80%
0.09 µM,COC[C@@H]1[C@@H](c2ccc(-c3ccc(F)c(C)c3C)cc2)[C@@H]2CN(S(=O)(=O)c3ccccc3C(F)(F)F)CCCCN12 [JP-41-OMe],–
2.5 µM,CCCNC(=O)N1CC(=O)N2[C@@H](CO)[C@H](c3ccc(-c4cccc(C)c4)cc3)[C@@H]2C1 [compound 231],Emax [2]: 60%
0.002 µM,Cc1cccc(-c2ccc([C@H]3C4CN(S(=O)(=O)c5cnc(C)n5C)C/C=C\CN4[C@@H]3CO)cc2)c1C (stereo partly shown) [JP-S18],–
0.8 µM,Cc1ccccc1S(=O)(=O)N1CCCCN2[C@H](CO)[C@@H](c3ccc(-c4cccc(F)c4F)cc3)[C@@H]2C1 [K15],–
1.5 µM,O=C(NC1CCCC1)N1CCCCN2[C@@H](CO)[C@H](c3ccc(/C=C/c4ccccc4)cc3)[C@@H]2C1 [compound 346],Emax [2]: 80%
0.015 µM,Cc1cccc(-c2ccc([C@@H]3[C@@H](CO)N4CCCCN(S(=O)(=O)c5ccnn5C(C)C)C[C@@H]34)cc2)c1C [JP-S10],–
0.05 µM,Cc1ccccc1S(=O)(=O)N1CCCCN2[C@H](CF)[C@@H](c3ccc(-c4cccc(C)c4C)cc3)[C@@H]2C1 [K28],–
0.02 µM,Cc1cccc(-c2ccc([C@H]3C4CN(S(=O)(=O)c5cccnc5C)C/C=C\CN4[C@@H]3CO)cc2)c1C (stereo partly shown) [JP-S21],–
0.004 µM,Cc1c(F)ccc(-c2ccc([C@@H]3[C@@H](CO)N4CCCCN(S(=O)(=O)c5nccn5C)C[C@@H]34)cc2)c1C [JP-43],–
> 0.2 µM,COC[C@@H]1[C@@H](c2ccc(-c3cccc(C)c3C)cc2)[C@@H]2CN(S(=O)(=O)c3ccnn3C(C)C)CCCCN12 [JP-S10-OMe],–

# The remaining lines, values behind:
Compound,IC50 [2],other results
Cc1ccccc1-c1ccc(C2C3CN(Cc4cccnc4)CC2N3)cc1 (stereo not shown) [C5],–,"Average Z-score (Fluorescence anisotropy) [1, 3]: −13.95"
CCCNC(=O)N1CC(=O)N2[C@H](CO)[C@H](c3ccc(-c4cccc(C)c4)cc3)[C@@H]2C1 [compound 782],–,"Average Z-score (Fluorescence anisotropy) [1, 3]: −16.08"
COc1ccccc1-c1ccc([C@H]2[C@H](C#N)N[C@@H]2CO)cc1 [D7],–,"Average Z-score (Fluorescence anisotropy) [1, 3]: −10.49"
Cc1cccc(-c2ccc([C@@H]3[C@@H](CO)N4CCCCN(S(=O)(=O)c5ccccc5F)C[C@@H]34)cc2)c1 [compound 688],–,"Average Z-score (Fluorescence anisotropy) [1, 4]: −27.23*"
COc1ccccc1-c1ccc([C@@H]2[C@@H](C#N)N(C(=O)C3CC3)[C@@H]2CO)cc1 [D1],–,"Average Z-score (Fluorescence anisotropy) [1, 3]: −16.97"
Cc1ccccc1S(=O)(=O)N1CCCCN2C(C1)[C@H](c1ccc(-c3cccc(O)c3)cc1)[C@H]2CO (stereo partly shown) [K8],–,Emax [2]: 100%
Cc1cccc(-c2ccc(C3CCN(S(=O)(=O)c4ccc5c(c4)CCC(=O)N5)CC3)cc2)c1C [A10],33 µM,–
Cc1cc2c(cc1S(=O)(=O)N1CCC(c3ccc(-c4cccc(C)c4C)cc3)CC1)OCC(=O)N2 [A13],10 µM,–
Cc1cccc(-c2ccc([C@H]3C4CNC/C=C\CN4[C@@H]3CO)cc2)c1C (stereo partly shown) [Int211],> 10 µM,–
Cc1ccccc1S(=O)(=O)N1C/C=C\CN2C(C1)[C@H](c1ccc(-c3cccc(Cl)c3C)cc1)[C@H]2CO (stereo partly shown) [JP-28],0.003 µM,–
Cc1cccc(-c2ccc(C3CCN(C(=O)c4ccc5nccnc5c4)CC3)cc2)c1C [J17],0.2 µM,–
COc1ccccc1C#Cc1ccc([C@@H]2[C@H](CO)N3CCCCN(C(=O)C4CCC4)C[C@@H]23)cc1 [compound 930],–,"Average Z-score (Fluorescence anisotropy) [1, 4]: −10.53*"
Cc1cccc(-c2ccc(C3CCN(C(=O)C4c5ccccc5-c5ccccc54)CC3)cc2)c1C [A27],12 µM,–
Cc1cccc(-c2ccc(C3CCN(C(=O)Oc4cccc5ccccc45)CC3)cc2)c1C [A29],> 50 µM,–
Cc1cccc(-c2ccc(C3CCN(S(=O)(=O)N4CC(C)OC(C)C4)CC3)cc2)c1C (stereo not shown) [A19],4 µM,–
Cc1cccc(-c2ccc(C3CCN(S(=O)(=O)c4ccc(F)c5ncccc45)CC3)cc2)c1C [A07],3 µM,–
COc1cccc(C#Cc2ccc([C@@H]3[C@H](CO)N4C(=O)CN(C(=O)Cc5cccnc5)C[C@@H]34)cc2)c1 [compound 089],–,"Average Z-score (Fluorescence anisotropy) [1, 3]: −4.11"
Cc1cccc(-c2ccc(C3CCN(S(=O)(=O)c4cc5ccccc5o4)CC3)cc2)c1C [A03],> 100 µM,–
Cc1ccccc1S(=O)(=O)N1CCCCN2C(C1)[C@H](c1ccc(-c3cccc(C)c3C)cc1)[C@H]2CO (stereo partly shown) [K9],–,Emax [2]: 65%
Cc1cccc(-c2ccc(C3CCN(Cc4cccc(Oc5ccccc5)c4)CC3)cc2)c1C [A32],12 µM,–
Cc1ccccc1S(=O)(=O)N1CCCCN2[C@H](CO)[C@@H](c3ccc(-c4ccc5c(c4)OCO5)cc3)[C@@H]2C1 [B4],–,Emax [2]: 100%
CNC[C@@H]1[C@@H](c2ccc(-c3cccc(C)c3C)cc2)[C@@H]2CN(S(=O)(=O)c3ccccc3C(F)(F)F)CCCCN12 [JP-17-NHMe],0.007 µM,–
Cc1cccc(-c2ccc([C@@H]3[C@@H](CO)N4C/C=C\CN(S(=O)(=O)c5ccccc5C)C[C@@H]34)cc2)c1 [B1],0.2 µM,–
Cc1cccc(-c2ccc(C3CCN(C(=O)c4ccc5ccccc5n4)CC3)cc2)c1C [A28],1 µM,–
Cc1ccccc1S(=O)(=O)N1CCCCN2[C@H](CO)[C@@H](c3ccc(-c4cccc(C(F)(F)F)c4)cc3)[C@@H]2C1 [B5],7.5 µM,–
Cc1ccccc1S(=O)(=O)N1CCC(c2ccc(-c3cccc(C)c3C)cc2)CC1 [J6],0.3 µM,–
